Source: patent publication US20260000794A1, “IN VIVO TRANSITION METAL DETECTION” (The University of Sydney, priority 2022, published 2026)
Entries after “also recorded” stand apart in the source; their conditions may differ.

Assays:
[1] = tested on: SH-SY5Y cells; experiment: Confocal microscopy of F—NpCul fluorescence in cells with copper loading or depletion (FIG. 4); assay type: cell-based, human
Method: SH-SY5Y cells were used, which are a human neuron-like cell line. SH-SY5Y cells were maintained at 37° C. in 5% CO2. Cells were cultured in Dulbecco's Modified Eagle's Medium (DMEM, Thermo Fisher Scientific) supplemented with 10% foetal calf serum (FCS, Thermo Fisher Scientific) and 2.5 mM L-glutamine (Sigma-Aldrich). Fluorobrite DMEM (FDMEM, Thermo Fisher Scientific) was supplemented with 10% FCS and 2.5 mM L-glutamine, unless otherwise stated.
For all imaging experiments, 1.5×10^5 cells were seeded into 35 mm glass bottom dishes (MatTek) and allowed to adhere overnight. 10 mM stock solutions of F—NpCul CuATSM were freshly prepared in DMSO. A 10 mM stock solution of BCS was freshly prepared in MilliQ water. For experiments cells were dosed with nothing (vehicle), 1 μL of 10 mM CuATSM stock in 1 mL DMEM or 10 μL of 10 mM BCS solution in 1 mL DMEM. […]
Images were obtained at 37° C. in a 5% CO2 atmosphere on an Olympus Fluo View FV3000 Confocal Laser Scanning Microscope, equipped with an Olympus 60× water objective (UPLSAPO60XW) and 405 and 640 nm lasers, unless otherwise stated. All samples were excited at 405 nm, and fluorescence emission collected from 510-610 nm. […] Data is presented as the mean fluorescence intensities of 40-50 cell clusters chosen as regions of interest from 10 images representative of each condition.

[2] = tested on: SWISS mice; experiment: DIVE microscopy of fluorescent emission in CuATSM-treated vs untreated mice after F—NpCul injection (FIG. 5, FIG. 6); assay type: in vivo, mouse; conditions: 4 mg/kg F—NpCul i.v. tail vein, CuATSM 15 mg/kg orally daily for eight days
Method: (§1) In this work, anaesthetised SWISS mice underwent a craniotomy surgery to expose a region of parietal cortex. Imaging was performed through this cranial window with a water dipping objective lens. 4 mg/kg F—NpCul was i.v. injected through the tail vein after three minutes. F—NpCul was excited at 920 nm and emission was 504-577nm. “Treated” mice (n=3) were orally administered the copper-delivery compound CuATSM (15 mg/kg) daily for eight days to increase brain copper levels prior to imaging while control mice (n=3, “Untreated”) received no treatment. For each mouse at all time points, fluorescent emission per unit area (arbitrary units) from five representative regions of interest (ROIs) within vasculature and five ROIs in surrounding tissue was quantified from a projected image combining 130 μm depth. Baseline fluorescence from an image acquired prior to probe injection was subtracted from all fluorescent measurements which were then averaged at each time point. Comparison of average fluorescent emission intensity between control and CuATSM-treated mice was undertaken for a) brain tissue and b) vasculature. Unpaired t-tests with significance p<0.05 were performed to describe the temporal pattern of change. Error bars show mean ±SEM.
(§2) Anaesthetised SWISS mice underwent a craniotomy surgery to create a cranial window exposing parietal cortex. […]

[3] = tested on: mice; experiment: Observation of signs of toxicity in the in vivo studies; parameters: species or system mouse; conditions: in vivo imaging studies, 4 mg/kg F—NpCul
Method: as §1, §2

CCSCCN(CCSCC)Cc1cn(C(=O)OCCOCCNc2ccc3c4c(cccc24)C(=O)N(CCF)C3=O)cn1 [F—NpCul]
mean fluorescence intensity response to copper status ([1]; 10 μM F—NpCul, cells treated with vehicle, 10 μM CuATSM (copper-loading) or 100 μM BCS (copper-depleting) for 1 h, P<0.001 v vehicle): sensitive to both an accumulation and a deficiency of copper | bioavailability and cell uptake, reporting intracellular Cu(I) levels ([1]; preliminary results): bioavailable and can be taken up by cells to report intracellular Cu(I) levels | reported copper levels within the vasculature, treated vs untreated mice [2]: equivalent | fluorescent signal in brain tissue, CuATSM-treated vs untreated mice ([2]; parietal cortex, excitation 920 nm, emission 504-577 nm): significantly higher; also recorded: Higher fluorescent signal is observed in CuATSM-treated mice compared to control | signs of toxicity following F—NpCul exposure [3]: no signs of toxicity
